# Test system: A431 cells
# Assay: Inhibition of A431 cells by 225-CDR peptides (3H-thymidine)
# Type: cell-based, human
# Conditions: 72 hours, FIG. 5
# Experimental: These peptides were dissolved in PBS at a concentration of 1 mg/ml. A431 cells were plated at 1000 cells per well in 96 well plates. Peptides were added at various concentrations. […] Plates were incubated for 72 hours at 37° C. and pulsed overnight with ^3H-thymidine. Cells were harvested and counted in a liquid scintillation counter. Percent inhibition is defined as the decrease in 3-H thymidine incorporation of antibody or peptide treated cells compared to cells grown in the absence of antibody or peptide.
row,Substance,inhibition of A431 cells (3H-thymidine incorporation)
1,GVIWSGGNTDYNTPFTSR [heavy chain CDR-2],inhibited
2,NYGVH [heavy chain CDR-1],inhibited

# Source: patent US7060808B1, “Humanized anti-EGF receptor monoclonal antibody” (ImClone Systems Incorporated, priority 1995, dated 2006)
